Structures can show the parent of a compound that is named as a salt.
What was measured:
[1] = cited from earlier work
[2] = tested on: marine bacteria strain S10; experiment: disc inhibition assay, strain S10; assay type: cell-based, Halobacillus trueperi; conditions: Halobacillus trueperi, S10, 24 h
Method in brief: (§1)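 50 μg compound/6 mm disc (from 2 mg/ml DMSO stock); DMSO blank disc control. Lawn swabbed on Marine Agar from marine broth culture. Overnight, 35° C, dark. Readout: inhibition zone diameter (calipers), mean of 2 replicates.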

[3] = tested on: Escherichia coli (Strain K12; ATCC 15222); experiment: disc inhibition assay, REF 1; assay type: cell-based
Description: (§2) 13 strains of marine bacteria were isolated from fouling communities located in the coastal waters around Singapore. These were characterized in earlier studies and reported in Teo et al. (U.S. patent application Ser. No. 11/265,833) and Choong et al (in prep). In addition, four reference bacterial strains were added tested: Escherichia coli (Strain K12, ATCC 15222), E. coli (strain DH5a), Pseudomonas aeruginosa (strain LMG 12228; ATCC 15692) and P. putida (strain KT2440; ATCC 47054). All the bacteria were also tested against five antibiotics: ampicillin (AMP), tetracycline (TETR), erythromycin (ERY), chloramphenicol (CHL) and streptomycin (STREP).
(§3) Disks comprising the compounds to be tested were prepared as follows. The antibacterial assay, the pure compounds were made up to a concentration of 2 mgml^−1 in DMSO. 25 μl of the stock was pipetted onto each 6 mm sterile disc (Macherey-Nagel #484000) to obtain 50 μg of compound per disc. Equivalent volume of DMSO was used inoculated for the control.
(§4) For all disk inhibition assays, bacterial cultures were grown in marine broth (Pronadisa #1217.00). Sterile swabs dipped into the cultures were used to inoculate Marine Agar plates with a bacterial lawn by smearing the culture over the surface. After inoculating the plates, discs with antibiotics, pharmaceuticals or control blanks were placed on each plate. Each concentration of antibiotic or pharmaceutical was tested with two replicates. After the disks were placed on the agar surface, plates were incubated overnight in the dark at 35° C. After incubation, plates were examined for zones of inhibition or clearing around control and treated disks. The diameter of any zone of clearing or inhibition was measured using Vernier calipers. There were two replicates per treatment, and the average was taken. There was no zone of inhibition around the control blanks in all the assays.

[4] = tested on: marine bacteria strain S27; experiment: disc inhibition assay, strain S27; assay type: cell-based, Tenacibaculum lutimaris; conditions: Tenacibaculum lutimaris, S27, 24 h
Method in brief: as §1

[5] = tested on: Pseudomonas aeruginosa (strain LMG 12228; ATCC 15692); experiment: disc inhibition assay, REF 3; assay type: cell-based
Description: as §2, §3, §4

[6] = tested on: marine bacteria strain S18; experiment: disc inhibition assay, strain S18; assay type: cell-based, Microbacterium esteraromaticum; conditions: Microbacterium esteraromaticum, S18, 24 h
[7] = tested on: marine bacteria strain S3; experiment: disc inhibition assay, strain S3; assay type: cell-based, Erythrobacter aquimaris
Method in brief: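 Antibacterial susceptibility was measured by agar disc diffusion. Compounds dissolved in DMSO were applied to 6 mm sterile discs and laid on Marine Agar lawns of a Singapore coastal marine bacterium cultured in marine broth. After overnight dark incubation at 35° C, clearing zone diameters were measured with Vernier calipers, and the two replicates were averaged.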

[8] = tested on: marine bacteria strain S1; experiment: disc inhibition assay, strain S1; assay type: cell-based, Rhodovulum iodosum
Method in brief: as §1

[9] = tested on: Escherichia coli (Strain DH5a); experiment: disc inhibition assay, REF 2; assay type: cell-based
Description: as §2, §3, §4

[10] = tested on: Pseudomonas putida (Strain KT2440; BCRC 10459); experiment: disc inhibition assay, REF 4; assay type: cell-based
Description: as §2, §3, §4

[11] = tested on: marine bacteria strain S17; experiment: disc inhibition assay, strain S17; assay type: cell-based, Gordonia terrae
Method in brief: as §1

[12] = tested on: marine bacteria strain S29; experiment: disc inhibition assay, strain S29; assay type: cell-based, Bacillus hwajinpoensis; conditions: Guptibacillus hwajinpoensis, S29, 24 h
Method in brief: as §1

[13] = tested on: marine bacteria strain S14; experiment: disc inhibition assay, strain S14; assay type: cell-based, Vibrio probioticus
[14] = tested on: marine bacteria strain S4; experiment: disc inhibition assay, strain S4; assay type: cell-based, Bacillus algicola; conditions: Guptibacillus algicola, S4, 24 h
Method in brief: as §1

[15] = tested on: marine bacteria strain S9; experiment: disc inhibition assay, strain S9; assay type: cell-based, Bacillus algicola; conditions: Guptibacillus algicola, S9, 24 h
Method in brief: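 Compounds were dissolved at 2 mg/ml in DMSO (stock) and 50 μg loaded per 6 mm disc, with DMSO-only discs as control. Discs went onto Marine Agar lawns swabbed from marine broth cultures, plates were incubated overnight in the dark at 35° C, and clearing-zone diameter was measured by calipers, averaged over two replicates.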

[16] = tested on: marine bacteria strain S28; experiment: disc inhibition assay, strain S28; assay type: cell-based, Arthrobacter protophormial; conditions: Arthrobacter, S28, 24 h
Method in brief: as §1

[17] = tested on: marine bacteria strain S16; experiment: disc inhibition assay, strain S16; assay type: cell-based, Pseudoalteromonas piscicida; conditions: Pseudoalteromonas piscicida, S16, 24 h
Method in brief: as §1

[18] = tested on: marine bacteria strain S30; experiment: disc inhibition assay, strain S30; assay type: cell-based, Bacillus borophilicus; conditions: Bacillus, S30, 24 h
Method in brief: as §1

CN(C)C(=O)C(CCN1CCC(O)(c2ccc(Cl)cc2)CC1)(c1ccccc1)c1ccccc1 [Loperamide hydrochloride]
solubility in water [1]: slightly soluble

CC[C@H]1OC(=O)[C@H](C)[C@@H](O[C@H]2C[C@@](C)(OC)[C@@H](O)[C@H](C)O2)[C@H](C)[C@@H](O[C@@H]2O[C@H](C)C[C@H](N(C)C)[C@H]2O)[C@](C)(O)C[C@@H](C)C(=O)[C@H](C)[C@@H](O)[C@]1(C)O [ERY, Erythromycin, reference compound]
zone of inhibition at 5 µg/disc ([2]; strain 10, 5 ug): 5 to 10 mm
zone of inhibition at 15 µg/disc ([2]; strain 10, 15 ug): > 10 mm
zone of inhibition ([3]; REF 1, 5 ug): −
zone of inhibition ([3]; REF 1, 15 ug): + (2-5 mm zone of inhibition around each disk was observed.)
zone of inhibition at 5 µg/disc ([4]; strain 27, 5 ug): 5 to 10 mm
zone of inhibition at 15 µg/disc ([4]; strain 27, 15 ug): 5 to 10 mm
zone of inhibition ([5]; REF 3, 5 ug): + (2-5 mm zone of inhibition around each disk was observed.)
zone of inhibition ([5]; REF 3, 15 ug): + (2-5 mm zone of inhibition around each disk was observed.)
zone of inhibition at 5 µg/disc ([6]; strain 18, 5 ug): 2 to 5 mm
zone of inhibition at 15 µg/disc ([6]; strain 18, 15 ug): 5 to 10 mm
zone of inhibition at 5 µg/disc ([7]; Qipengyuania aquimaris, S3, 24 h, strain 3, 5 ug): 5 to 10 mm
zone of inhibition at 15 µg/disc ([7]; Qipengyuania aquimaris, S3, 24 h, strain 3, 15 ug): 5 to 10 mm
zone of inhibition ([8]; strain 1, 5 ug): −
zone of inhibition ([8]; strain 1, 15 ug): −
zone of inhibition ([9]; REF 2, 5 ug): −
zone of inhibition ([9]; REF 2, 15 ug): + (2-5 mm zone of inhibition around each disk was observed.)
zone of inhibition ([10]; REF 4, 5 ug): + (2-5 mm zone of inhibition around each disk was observed.)
zone of inhibition ([10]; REF 4, 15 ug): + (2-5 mm zone of inhibition around each disk was observed.)
zone of inhibition at 5 µg/disc ([11]; Gordonia terrae, S17, 24 h, strain 17, 5 ug): > 10 mm
zone of inhibition at 15 µg/disc ([11]; Gordonia terrae, S17, 24 h, strain 17, 15 ug): > 10 mm
zone of inhibition at 5 µg/disc ([12]; strain 29, 5 ug): > 10 mm
zone of inhibition at 15 µg/disc ([12]; strain 29, 15 ug): > 10 mm
zone of inhibition at 15 µg/disc ([13]; Vibrio, S14, 24 h): 2 to 5 mm
zone of inhibition ([13]; strain 14, 5 ug): −
zone of inhibition at 5 µg/disc ([14]; strain 4, 5 ug): > 10 mm
zone of inhibition at 15 µg/disc ([14]; strain 4, 15 ug): > 10 mm
zone of inhibition at 5 µg/disc ([15]; strain 9, 5 ug): > 10 mm
zone of inhibition at 15 µg/disc ([15]; strain 9, 15 ug): > 10 mm
zone of inhibition at 5 µg/disc ([16]; strain 28, 5 ug): > 10 mm
zone of inhibition at 15 µg/disc ([16]; strain 28, 15 ug): > 10 mm
zone of inhibition at 5 µg/disc ([17]; strain 16, 5 ug): 2 to 5 mm
zone of inhibition at 15 µg/disc ([17]; strain 16, 15 ug): 2 to 5 mm
zone of inhibition at 5 µg/disc ([18]; strain 30, 5 ug): 5 to 10 mm
zone of inhibition at 15 µg/disc ([18]; strain 30, 15 ug): 5 to 10 mm

CC1(C)S[C@@H]2[C@H](NC(=O)[C@H](N)c3ccccc3)C(=O)N2[C@H]1C(=O)O [AMP, Ampicillin, reference compound]
zone of inhibition at 2 µg/disc ([2]; strain 10, 2 ug): > 10 mm
zone of inhibition at 10 µg/disc ([2]; strain 10, 10 ug): > 10 mm
zone of inhibition ([3]; REF 1, 2 ug): −
zone of inhibition ([3]; REF 1, 10 ug): + (2-5 mm zone of inhibition around each disk was observed.)
zone of inhibition at 2 µg/disc ([4]; strain 27, 2 ug): 5 to 10 mm
zone of inhibition at 10 µg/disc ([4]; strain 27, 10 ug): > 10 mm
zone of inhibition ([5]; REF 3, 2 ug): −
zone of inhibition ([5]; REF 3, 10 ug): −
zone of inhibition at 2 µg/disc ([6]; strain 18, 2 ug): 2 to 5 mm
zone of inhibition at 10 µg/disc ([6]; strain 18, 10 ug): 5 to 10 mm
zone of inhibition ([7]; strain 3, 2 ug): −
zone of inhibition ([7]; strain 3, 10 ug): −
zone of inhibition at 2 µg/disc ([8]; Rhodovulum iodosum, S1, strain 1, 2 ug): 5 to 10 mm
zone of inhibition at 10 µg/disc ([8]; Rhodovulum iodosum, S1, strain 1, 10 ug): 5 to 10 mm
zone of inhibition ([9]; REF 2, 2 ug): −
zone of inhibition ([9]; REF 2, 10 ug): + (2-5 mm zone of inhibition around each disk was observed.)
zone of inhibition ([10]; REF 4, 2 ug): −
zone of inhibition ([10]; REF 4, 10 ug): + (2-5 mm zone of inhibition around each disk was observed.)
zone of inhibition ([11]; strain 17, 2 ug): −
zone of inhibition ([11]; strain 17, 10 ug): −
zone of inhibition at 2 µg/disc ([12]; strain 29, 2 ug): > 10 mm
zone of inhibition at 10 µg/disc ([12]; strain 29, 10 ug): > 10 mm
zone of inhibition at 2 µg/disc ([13]; Vibrio, S14, 24 h): 2 to 5 mm
zone of inhibition at 10 µg/disc ([13]; Vibrio, S14, 24 h): 2 to 5 mm
zone of inhibition at 2 µg/disc ([14]; strain 4, 2 ug): > 10 mm
zone of inhibition at 10 µg/disc ([14]; strain 4, 10 ug): > 10 mm
zone of inhibition at 2 µg/disc ([15]; strain 9, 2 ug): 2 to 5 mm
zone of inhibition at 10 µg/disc ([15]; strain 9, 10 ug): > 10 mm
zone of inhibition at 2 µg/disc ([16]; strain 28, 2 ug): 2 to 5 mm
zone of inhibition at 10 µg/disc ([16]; strain 28, 10 ug): 5 to 10 mm
zone of inhibition at 2 µg/disc ([17]; strain 16, 2 ug): 2 to 5 mm
zone of inhibition at 10 µg/disc ([17]; strain 16, 10 ug): 2 to 5 mm
zone of inhibition at 2 µg/disc ([18]; strain 30, 2 ug): > 10 mm
zone of inhibition at 10 µg/disc ([18]; strain 30, 10 ug): > 10 mm
